# From patent US10196401B2, “Spiro-lactam NMDA receptor modulators and uses thereof” (Aptinyx Inc., priority 2016, dated 2019)
# Read-outs that look alike come from different tables or passages of the source.
# Legend:
# [1] = Microsomal stability, rat; assay type: in vitro ADME
# Experimental: (§1) Microsomal and plasma stability of Compound A was investigated. The following table indicates the percent of Compound A remaining after 60 minutes.
# (§2) Microsomal and plasma stability of Compound B was investigated. The following table indicates the percent of Compound B remaining after 60 minutes.
# [2] = Plasma stability, rat; assay type: in vitro ADME
# Experimental: as §1, §2
# [3] = Plasma protein binding, human; assay type: in vitro ADME; conditions: read-out: plasma protein binding (% bound) (converted)
# Experimental: Unbound drug concentration in the brain was also investigated, and plasma protein binding assays were conducted. The following table (% bound) indicates results for Compound A.
# Unbound drug concentration in the brain was also investigated, and plasma protein binding assays were conducted. The following table (% bound) indicates results for Compound B.
# [4] = Bioavailability and CSF/brain/plasma distribution after PO dosing; assay type: in vivo, Sprague Dawley rats; conditions: for Kp / bioavailability: Sprague Dawley, rat, PO administration (Compound A 10 mg/kg); for bioavailability: plasma, read-out: Bioavailablity (% F); for oral bioavailability, in words / proportion able to get to the CSF and brain, in words: comparative statement, comparator not named
# Experimental: The bioavailablity of Compound A was investigated following PO administration. CSF, brain and plasma samples were analyzed following dosing with compound A (10 mg/kg). The following table indicates the bioavailablity and CSF/plasma and brain/plasma ratios.
# Sprague Dawley rats were dosed intravenously with 2 mg/kg of Compound A. A second group of Sprague Dawley rats was dosed per os with 10 mg/kg of compound A. Plasma samples were drawn over a 24 h period and analyzed for Compound A.
# In another experiment, Sprague Dawley rats were dosed per os with 10 mg/kg of Compound A. Plasma, brain, and CSF samples were analyzed at various time points over a 24 hour period. […]
# [5] = biological target: NMDAR2C (Homo sapiens, UniProt Q14957); test: Potentiation of [3H]MK-801 binding, NMDAR2C; set-up: species or system rat; conditions: for % 1 mM Glycine: relative to 1 mM glycine
# Sequence of NMDAR2C (Q14957 20-1233, species assumed, other chains not shown): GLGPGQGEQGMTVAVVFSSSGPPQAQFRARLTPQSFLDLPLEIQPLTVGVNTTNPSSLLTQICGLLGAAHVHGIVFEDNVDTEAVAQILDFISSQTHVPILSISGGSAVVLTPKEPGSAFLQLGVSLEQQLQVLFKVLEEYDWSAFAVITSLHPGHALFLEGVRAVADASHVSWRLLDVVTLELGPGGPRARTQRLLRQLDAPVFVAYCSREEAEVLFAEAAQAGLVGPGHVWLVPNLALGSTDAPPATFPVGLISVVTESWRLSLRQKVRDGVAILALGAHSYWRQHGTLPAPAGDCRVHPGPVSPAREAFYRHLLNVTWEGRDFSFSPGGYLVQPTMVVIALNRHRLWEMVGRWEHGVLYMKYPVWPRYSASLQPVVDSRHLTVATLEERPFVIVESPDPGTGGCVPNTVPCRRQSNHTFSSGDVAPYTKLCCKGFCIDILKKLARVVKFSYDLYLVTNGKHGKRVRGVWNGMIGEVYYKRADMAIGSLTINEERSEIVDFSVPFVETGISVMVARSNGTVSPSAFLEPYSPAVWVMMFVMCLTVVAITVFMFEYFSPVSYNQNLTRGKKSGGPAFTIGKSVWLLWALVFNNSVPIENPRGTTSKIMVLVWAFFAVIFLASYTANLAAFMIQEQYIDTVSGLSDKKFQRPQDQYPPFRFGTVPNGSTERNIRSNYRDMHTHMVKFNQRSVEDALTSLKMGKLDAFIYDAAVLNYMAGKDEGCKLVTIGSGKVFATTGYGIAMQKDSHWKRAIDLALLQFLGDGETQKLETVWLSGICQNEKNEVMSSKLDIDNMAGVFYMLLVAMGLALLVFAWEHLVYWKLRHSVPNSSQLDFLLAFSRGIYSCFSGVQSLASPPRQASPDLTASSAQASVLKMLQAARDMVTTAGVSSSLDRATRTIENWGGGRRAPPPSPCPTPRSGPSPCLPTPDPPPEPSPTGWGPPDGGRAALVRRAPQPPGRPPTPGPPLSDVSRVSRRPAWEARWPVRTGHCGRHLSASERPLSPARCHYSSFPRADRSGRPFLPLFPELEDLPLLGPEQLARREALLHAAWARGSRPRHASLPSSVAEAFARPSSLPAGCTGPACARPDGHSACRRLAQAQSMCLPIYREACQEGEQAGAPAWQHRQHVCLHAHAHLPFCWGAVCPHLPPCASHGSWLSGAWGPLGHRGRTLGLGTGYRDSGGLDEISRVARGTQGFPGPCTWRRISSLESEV
# [6] = biological target: NMDAR2D (Homo sapiens, UniProt O15399); test: Potentiation of [3H]MK-801 binding, NMDAR2D; set-up: species or system rat; conditions: for Conclusion / % 1 mM Glycine: NMDAR2D binding profile; for % 1 mM Glycine: relative to 1 mM glycine; for potentiation of [3H]MK-801 binding, subtype preference in words: NR2D, FIG. 2 / FIG. 6
# Sequence of NMDAR2D (O15399 28-1336, species assumed, other chains not shown): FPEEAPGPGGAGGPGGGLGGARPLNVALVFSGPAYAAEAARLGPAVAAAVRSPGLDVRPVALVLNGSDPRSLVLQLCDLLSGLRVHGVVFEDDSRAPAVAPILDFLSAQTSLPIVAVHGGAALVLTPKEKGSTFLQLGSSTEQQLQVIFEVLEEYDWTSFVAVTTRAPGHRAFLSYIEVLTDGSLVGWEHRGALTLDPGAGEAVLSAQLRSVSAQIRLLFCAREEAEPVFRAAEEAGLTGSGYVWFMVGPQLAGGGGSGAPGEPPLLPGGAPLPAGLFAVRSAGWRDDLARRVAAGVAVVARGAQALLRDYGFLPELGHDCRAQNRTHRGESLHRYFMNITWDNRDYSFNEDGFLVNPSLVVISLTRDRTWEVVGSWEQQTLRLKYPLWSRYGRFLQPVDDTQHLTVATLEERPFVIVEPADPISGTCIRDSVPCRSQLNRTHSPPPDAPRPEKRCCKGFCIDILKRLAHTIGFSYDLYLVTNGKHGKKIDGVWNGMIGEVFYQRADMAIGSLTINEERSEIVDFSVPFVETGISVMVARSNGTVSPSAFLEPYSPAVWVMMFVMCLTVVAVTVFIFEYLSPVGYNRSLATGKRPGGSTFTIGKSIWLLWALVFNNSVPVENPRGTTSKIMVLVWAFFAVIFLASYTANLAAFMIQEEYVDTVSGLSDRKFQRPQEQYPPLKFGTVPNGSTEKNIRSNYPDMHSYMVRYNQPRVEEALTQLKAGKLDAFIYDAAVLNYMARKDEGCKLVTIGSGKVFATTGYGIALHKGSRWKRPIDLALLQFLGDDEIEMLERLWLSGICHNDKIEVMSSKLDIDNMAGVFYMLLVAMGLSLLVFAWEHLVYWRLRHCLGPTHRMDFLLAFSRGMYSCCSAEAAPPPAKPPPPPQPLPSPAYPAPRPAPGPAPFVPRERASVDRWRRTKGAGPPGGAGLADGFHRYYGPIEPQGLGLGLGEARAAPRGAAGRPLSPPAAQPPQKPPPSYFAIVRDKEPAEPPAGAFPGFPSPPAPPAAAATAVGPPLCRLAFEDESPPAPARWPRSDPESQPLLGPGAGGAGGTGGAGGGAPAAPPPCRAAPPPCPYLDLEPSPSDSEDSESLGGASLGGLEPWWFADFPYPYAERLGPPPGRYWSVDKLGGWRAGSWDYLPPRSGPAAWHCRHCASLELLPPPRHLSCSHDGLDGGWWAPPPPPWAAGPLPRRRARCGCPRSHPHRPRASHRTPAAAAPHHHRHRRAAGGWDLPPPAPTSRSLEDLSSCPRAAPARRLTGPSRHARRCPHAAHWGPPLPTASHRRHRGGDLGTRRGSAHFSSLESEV
# Experimental: Assays were conducted as described by Moskal et al., “GLYX-13: a monoclonal antibody-derived peptide that acts as an N-rnethyl-D-aspartate receptor modulator,” Neuropharmacology, 49, 1077-87, 2005. The potentiation of [^3H]MK-801 binding (5 nrM; 22.5 Ci/mmol) to well washed rat cortical membranes (200 μg) was measured under non-equilibrium conditions (15 min @ 25° C.) in the presence of increasing concentrations of Compound A.
# Assays were conducted as described above in Example 5, by Moskal et al. (2005).
# [7] = tested on: Sprague Dawley rats; test: Blast-induced traumatic brain injury/cognitive deficits measured by PEL; assay type: in vivo, rat; conditions: 10 mg/kg PO 1 h post-blast; PEL 48 hours post-blast
# Description: Single blast-induced traumatic brain injury/cognitive deficits were induced, modified for use in rats according to the protocol of Goldstein et al., “Chronic traumatic encephalopathy in blast-exposed military veterans and a blast neurotrauma mouse model,” Science Translational Medicine, Vol. 4, Issue 134, pp. 134ra60, 2012. Male 2-3 month old Sprague Dawley rats were used. Rats were housed in Lucite cages with aspen wood chip bedding, maintained on a 12:12 light:dark cycle (lights on at 5 AM), and given ad libitum access to Purina lab chow (USA) and tap water throughout the study. Rats were first anesthetized using 3.5-4% isoflurane, then the ears were protected with 1.5×1.5 mm foam plugs (Pura-Fit®, Moldex-Metric Inc., Culver City, Calif.), and the rat was placed into a head access rodent thoracic restrainer (Stoelting, USA) to protect the body while allowing the head to move freely. […]
# PEL (Positive emotional learning) was conducted 48 hours post-blast. […] High frequency ultrasonic vocalizations (USVs) were recorded and analyzed by sonogram with Avasoft SASlab Pro (Germany) as previously described by Burgdorf et al., “Positive emotional learning is regulated in the medial prefrontal cortex by GluN2B-containing NMDA receptors,” Neuroscience, 192:515-523, 2011. Frequency raodulated 50-kH-z USVs that occurred during each the no-stimulation periods were quantified to measure PEL. […]
# [8] = tested on: Sprague Dawley rats; test: Porsolt forced swim test; assay type: in vivo, rat; conditions: compared to vehicle group
# Experimental: A non-clinical in vivo pharmacology study (Porsoit assay) was performed to measure antidepressant-like effects. A negative control (0.5% sodium carboxymethyl cellulose in 0.9% sterile saline vehicle) and a positive control (Compound D) were used to compare against Compound A and Compound B. The study allowed for the construction of a dose-response curve of the effects of each compound on the Porsolt forced swim test as assessed by the rats' response (reduced floating time) during a 5-minute swimming test.
# Male 2-3 month old Sprague Dawley rats were used (Harlan, Indianapolis, Ind.). Rats were housed in Lucite cages with aspen wood chip bedding, maintained on a 12:12 light:dark cycle (lights on at 5 AM), and given ad libitum access to Purina lab chow (USA) and tap water throughout the study.
# The Porsolt forced swim test adapted for use in rats was performed as described by Burgdorf et al., (The long-lasting antidepressant effects of rapastinel (GLYX-13) are associated with a metaplasticity process in the medial prefrontal cortex and hippocampus. Neuroscience 308:202-211, 2015). […] Animals were videotaped, and floating time as defined as the minimal amount of effort required to keep the animals head above water was scored offline by a blinded experimenter with high inter-rater reliability (Pearson's r>0.9). […]
# [9] = CSF/plasma, read-out: CSF/plasma ratio
# [10] = brain/plasma, read-out: Brain/plasma ratio
Structure (SMILES),"Microsomal stability, percent remaining after 60 minutes [1] [%]","Plasma stability, percent remaining after 60 minutes [2] [%]",fraction unbound [3],"Kp [4, 9]","Kp [4, 10]",bioavailability [4] [%],"oral bioavailability, in words [4]","proportion able to get to the CSF and brain, in words [4]",Conclusion ([5]; NMDAR2C binding profile),"EC50 ([5]; NMDAR2C binding profile, wild-type) [nM]",% 1 mM Glycine ([5]; NMDAR2C binding profile) [%],Conclusion [6],% 1 mM Glycine [6] [%],"potentiation of [3H]MK-801 binding, subtype preference in words [6]",blast-induced cognitive deficits as measured by PEL [7],"floating time in the Porsolt test (antidepressant-like effect) ([8]; 10-1000 μg/kg PO, 1 h post-dosing)","potentiation of [3H]MK-801 binding, subtype preference in words ([5]; NR2C, FIG. 6)","floating time in the Porsolt test (antidepressant-like effect) ([8]; 0.1-10 μi/kg PO, 1 hour post-dosing)"
"CC(C)CN1CCC[C@]12CN([C@H](C(N)=O)[C@@H](C)O)C2=O [Compound A, (2S,3R)-3-hydroxy-2-((R)-5-isobutyl-1-oxo-2,5-diazaspiro[3.4]octan-2-yl)butanamide]",65,92,0.741,0.65,0.19,42,lower oral bioavailability,a higher proportion is able to get to the CSF and brain,WT2C agonist,1.51,66.21,WT2D no,0,no binding to NR2D,reversed blast-induced cognitive deficits,produces an antidepressant-like effect,–,–
"CC(C)CN1CCC[C@@]12CN([C@H](C(N)=O)[C@@H](C)O)C2=O [Compound B, (2S,3R)-3-hydroxy-2-((S)-5-isobutyl-1-oxo-2,5-diazaspiro[3.4]octan-2-yl)butanamide]",81,89,0.712,0.7,0.18,38,lower oral bioavailability,a higher proportion is able to get to the CSF and brain,WT2C agonist,–,85.37,agonist,66.21,highly NR2B and NR2D preferring,reversed blast-induced cognitive deficits,–,lower potency in NR2A and NR2C,produces an antidepressant-like effect
